The text below walks through data of patent US11999758B2, “Inhibitors of the YAP/TAZ-TEAD interaction and their use in the treatment of cancer” (INVENTIVA, priority 2018, dated 2024).

One series has as its system Met5A cell line. As to the kind of experiment: Cell proliferation in YAP-independent cell line (EdU). Format: cell-based. To be noted: FIG. 1 (▪). The method, then: (§1) The tumor cell growth inhibitory activity of the YAP-TEAD interaction inhibitors was evaluated in NCI-H-2052 mesothelioma cell line harboring a NF2 mutation. This cell line was selected based on its mutational status and the ability of a siRNA directed against YAP, TAZ or TEAD1-4 to inhibit cell proliferation. The nuclear localization of YAP at confluence was also taken into account. Based on these observations we were able to classify several “YAP dependent cells” where YAP is clearly nuclear and in which a cell growth inhibition is observed by using siRNA (NCI-H-2052, SKOV-3, ACHN, A549) and the “YAP independent cells” where YAP is preferentially located in the cytoplasm and in which no inhibition of cell growth is observed by using a siRNA (SW620, Met-5a). […] After one day growth in the starvation medium, cells were incubated with compounds. The starting concentration was 30 μM and serial dilutions in DMSO and medium were performed until 0.1 μM to achieve a final DMSO concentration of 0.5%. The cells were then allowed to grow for 3 days, and then, EdU (Invitrogen, Molecular Probe) was added in each well at a final concentration of 10 μM and the cells were returned to the incubator for an additional 24 h. The starvation medium was removed and 100 μl of PFA 4% containing Hoechst dye was adding in each well to fix the cells. Plates were then incubated at rt for 15 min, washed twice with PBS and the cells were permeabilized by adding 100 μl per well of triton-100 containing 0.3% BSA. After 20 min, cells were washed with PBS and EdU detection was performed according to the instructions of the manufacturer. Image acquisition was performed using the ImageXpress Micro and analyzed using the MetaXpress software (Molecular Device). Results were expressed as a percent of inhibition (%) of the cell proliferation values obtained with 0.5% DMSO treatment alone. The cellular response was determined by fitting the concentration response curves using a 3 parameter curve fit equation and determining the concentration that inhibited cell growth between 50% and 100%.

Another series addresses T1, YAP-TEAD interaction (Homo sapiens, UniProt P28347).
T1 construct: expressed in transfected cells; host or cells: HEK293 GripTite 293 MSR (Invitrogen R795-07)
The series is described as follows: Cell-based TEAD-GAL4 transactivation assay (luciferase reporter). To be noted: HEK293 cells transfected with TEAD1-Gal4, YAP mutant (S127A, S397A) and luciferase reporter, compounds 0.1 μM to 30 μM; for Emax: HEK293, 24 h, read-out: TEAD-GAL4 Transactivation activity Max Act; for IC50: 24 h. The essentials:
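HEK293 cells transiently transfected with Gal4-DBD–full-length human TEAD1, full-length YAP S127A/S397A (YAP/TEAD ratio 10) and a 5×GAL4-RE TK-luciferase reporter. Six hours later, compounds added semi-log from 0.1 to 30 μM (DMSO 0.5% control) for 24 h. Luciferase read; IC50 from 3-parameter fit.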
(In general: Reporter assays use an easily measured gene product as a stand-in for the process of interest.)

For series [1], the system named is NCI-H2052 mesothelioma cell. The series is described as follows: Inhibition of malignant mesothelioma tumor cell growth (EdU proliferation). In kind it is cell-based. Particulars: NF2 mutated cell line; FIG. 1 (x). The method, then:
as §1

T1 sequence (P28347 whole entry): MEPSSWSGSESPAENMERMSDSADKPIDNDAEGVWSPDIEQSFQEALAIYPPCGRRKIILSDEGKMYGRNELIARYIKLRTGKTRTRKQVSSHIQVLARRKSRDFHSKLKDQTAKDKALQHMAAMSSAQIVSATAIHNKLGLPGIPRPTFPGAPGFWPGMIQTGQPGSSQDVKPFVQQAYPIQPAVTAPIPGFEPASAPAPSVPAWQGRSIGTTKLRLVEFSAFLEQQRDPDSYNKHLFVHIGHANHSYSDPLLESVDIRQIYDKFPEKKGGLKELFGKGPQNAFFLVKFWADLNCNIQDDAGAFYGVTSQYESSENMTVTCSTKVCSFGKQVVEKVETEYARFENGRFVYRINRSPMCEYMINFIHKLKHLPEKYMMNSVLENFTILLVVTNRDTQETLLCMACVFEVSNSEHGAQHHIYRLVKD

In the case of `CSc1nc2ncnc(N(C)/N=C/c3ccc4c(c3)COB4O)c2s1` [Ex75, N-[(E)-(1-hydroxy-3H-2,1-benzoxaborol-5-yl)methyleneamino]-N-methyl-2-methylsulfanyl-thiazolo[4,5-d]pyrimidin-7-amine], the melting point (usually the temperature of the solid-liquid transition) fell in the range of 262 to 286 °C. Moreover, the “effect in the Met5A cell line” value in the series with Met5A cell line is recorded as “without showing any effect”. Moreover, on YAP-TEAD interaction, the Emax came to 94% and inhibition was half-maximal at 900 nM (IC50). The “NCI-H2052 mesothelioma cell proliferation” value in series [1] is on record as “inhibited”.
For `Cc1csc2c(N3N=C(c4ccc5c(c4)COB5O)CCC3C)ncnc12` (stereo not drawn) [Ex118, 4-[6-(1-hydroxy-3H-2,1-benzoxaborol-5-yi)-3-methyl-4,5-dihydro-3H-pyridazin-2-yl]-7-methyl-thieno[3,2-d]pyrimidine], the “effect in the Met5A cell line” value in the series on Met5A cell line was “without showing any effect”. On YAP-TEAD interaction, the Emax is 86% and half-maximal inhibition (IC50) was put at 270 nM. For the same compound, the “NCI-H2052 mesothelioma cell proliferation” value in series [1] was “inhibited”.
Turning to `COc1cc(/C=N/N(CC(C)C)C2=NS(=O)(=O)c3ccccc32)ccc1B(O)O` [Ex 1, [4-[(E)-[(1,1-dioxo-1,2-benzothiazol-3-yl)-isobutyl-hydrazono]methyl]-2-methoxy-phenyl]boronic acid], the “effect in the Met5A cell line” value in the series on Met5A cell line was “without showing any effect”. On YAP-TEAD interaction, the Emax amounted to 86% and the 50% inhibitory concentration (IC50) (commonly the point on the concentration scale where inhibition reaches its midpoint) turned out to be 7310 nM. Besides, the “NCI-H2052 mesothelioma cell proliferation” value in series [1] is on record as “inhibited”.
`COc1cc(/C=N/N(CC(C)C)c2ncnc3ccsc23)ccc1B(O)O` [Ex 20, [4-[(E)-[isobutyl(thieno[3,2-d]pyrimidin-4-yl)hydrazono]methyl]-2-methoxy-phenyl] boronic acid]: the “effect in the Met5A cell line” value in the series with Met5A cell line is given as “without showing any effect”. In addition, at YAP-TEAD interaction, the Emax worked out at 87% and inhibition was half-maximal at 1340 nM (IC50). In series [1], the “NCI-H2052 mesothelioma cell proliferation” value is “inhibited”.
As to `CCN(/N=C/c1ccc2c(c1)COB2O)C1=NS(=O)(=O)c2ccccc21` [Ex 27, N-ethyl-N-[(E)-(1-hydroxy-3H-2,1-benzoxaborol-5-yl)methyleneamino]-1,1-dioxo-1,2-benzothiazol-3-amine], the melting point was found to be 218 °C. On YAP-TEAD interaction, the Emax stood at 83% and the 50% inhibitory concentration (IC50) was found to be 6460 nM.
Compound `Cc1ccc2c(c1)S(=O)(=O)N=C2N(CC(C)C)/N=C/c1ccc2c(c1)COB2O` [Ex 31, N-[(E)-(1-hydroxy-3H-2,1-benzoxaborol-5-yl)methyleneamino]-N-isobutyl-6-methyl-1,1-dioxo-1,2-benzothiazol-3-amine] had a melting point of 182 °C. At YAP-TEAD interaction, the Emax was determined as 90% and the half-maximal inhibitory concentration (IC50) was 4130 nM.
The matching figures for `CCN(/N=C/c1ccc2c(c1)COB2O)c1ncnc2[nH]ccc12` [Ex 39, N-ethyl-N-[(E)-(1-hydroxy-3H-2,1-benzoxaborol-5-yl)methyleneamino]-7H-pyrrolo[2,3-d]pyrimidin-4-amine]: 245 °C, 81% and 1200 nM.
In the case of `CCN(/N=C/c1ccc2c(c1)COB2O)c1ncnc2c(C)csc12` [Ex 42, N-ethyl-N-[(E)-(1-hydroxy-3H-2,1-benzoxaborol-5-yl)methyleneamino]-7-methyl-thieno[3,2-d]pyrimidin-4-amine], the “effect in the Met5A cell line” value in the series with Met5A cell line is given as “without showing any effect”. At YAP-TEAD interaction, the Emax came out at 81% and the midpoint of inhibition, the IC50, lay at 260 nM. In series [1], the “NCI-H2052 mesothelioma cell proliferation” value is reported as “inhibited”.
For `CCN(/N=C/c1ccc2c(c1)COB2O)c1ncnc2occc12` [Ex 43, N-ethyl-N-[(E)-(1-hydroxy-3H-2,1-benzoxaborol-5-yl)methyleneamino]furo[2,3-d]pyrimidin-4-amine], the melting point was determined as 225 °C. In addition, at YAP-TEAD interaction, the Emax turned out to be 78% and half-maximal inhibition (IC50) required 420 nM.
